{
  "source": "ChEMBL document CHEMBL1201862",
  "about": "“PubChem BioAssay data set” (2004)",
  "key": {"Genome polyprotein": {"target": "Genome polyprotein (Hepatitis C virus, UniProt Q2Q167)", "sequence (Q2Q167 whole entry)": "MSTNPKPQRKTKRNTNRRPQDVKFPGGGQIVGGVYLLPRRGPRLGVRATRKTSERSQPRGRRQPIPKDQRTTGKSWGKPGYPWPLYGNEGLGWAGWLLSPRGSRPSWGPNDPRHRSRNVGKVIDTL", "assay": "HCV core protein dimerization inhibitors, dose response, biochemical, TR-FRET (AID 2159);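 note: blocks dimerization of HCV core protein measured by TR-FRET between tagged core106 pairs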", "parameters": "species or system Hepacivirus hominis"}, "[1]": {"assay": "HEK293 cell cytotoxicity, dose response, cytotoxicity control, plate reader, cherry-picked samples (AID 743446)", "format": "functional, cell-based"}, "[2]": {"assay": "Shn3 3'UTR reporter inhibitors, dose response, cell-based, Clone20 osteoblasts, firefly luciferase, cherry-picked (AID 624132)", "format": "functional"}, "INS1": {"test_system": "INS1", "assay": "beta cell apoptosis inhibitors, cytokine rescue, dose response, luminescence, retest (AID 449756);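 note: cell death triggered by IL-1 beta plus TNF-alpha plus IFN-gamma mixture; protective hits raise ATP signal compared with cytokine alone wells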", "format": "functional, cell-based", "details": "Rattus norvegicus"}, "Jurkat": {"test_system": "Jurkat", "assay": "antigen receptor-induced NF-kB inhibitors, dose response, Jurkat, luciferase reporter, luminescence, B- and T-cell (AID 489004);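 note: NF-kB luciferase reporter Jurkat cells stimulated with PMA plus ionomycin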", "format": "functional, cell-based", "details": "Homo sapiens"}, "[3]": {"assay": "HepG2 cell cytotoxicity, dose response, cytotoxicity control for Shn3 inhibitor project, CellTiter-Glo, cherry-picked (AID 624134)", "format": "functional, cell-based"}, "[4]": {"assay": "cytotoxicity in HEK-293T NF-kB-Luc cells, dose response, cytotoxicity control for B/T-cell NF-kB inhibitor project, cell-based, uHTS hits (AID 489019);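 note: IC50 reflects cytotoxicity as loss of cell viability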", "format": "functional"}, "[5]": {"assay": "inhibitors of PGC1a acetylation in cells, dose response, cell-based, cherry-picked samples (AID 720514);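 note: potency may reflect raised or lowered acetylation signal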", "format": "functional"}, "[6]": {"assay": "A549 cell cytotoxicity, dose response, cytotoxicity control, plate reader, cherry-pick, antagonist series (AID 743412)", "format": "functional, cell-based"}, "[7]": {"assay": "LGR2 antagonists, dose response, cell-based, HEK293, CRE-luciferase reporter, cherry pick, set 2 (AID 743343);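 note: transfected cells were stimulated with diluted bursicon conditioned medium after compound addition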", "format": "functional"}, "[8]": {"assay": "control 3'UTR Renilla luciferase suppression, dose response, counter-screen for Shn3 inhibitor project, cell-based, Clone20-Shn3RL, cherry-picked (AID 624133)", "format": "functional"}, "[9]": {"assay": "HepG2 cell cytotoxicity, dose response, cytotoxicity control, plate reader, cherry-pick, antagonist series (AID 743416)", "format": "functional, cell-based"}, "[10]": {"assay": "MC4R antagonists, dose response, counter-screen for LGR2 antagonist project, cell-based, plate reader, cherry pick (AID 743444);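 note: transfected HEK 293 cells stimulated with alpha-MSH peptide; potency of inhibitors of the alpha-MSH evoked signal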", "format": "functional"}, "[11]": {"assay": "Artemis endonuclease inhibitor potency, dose response, biochemical, fluorescence intensity (AID 720701)", "format": "functional"}, "[12]": {"assay": "growth suppression of PTEN-null colon cells, dose response, cell-based, HCT116 PTEN knockout (AID 1047);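 note: HCT116 colon tumor cells with PTEN knocked out; cells exposed to compound for 60 hours before readout; potency for loss of cell viability measured by luminescence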", "format": "functional"}, "[13]": {"assay": "growth suppression of beta-catenin-knockout colon cells, dose response, cell-based, HCT116, human colon tumor (AID 1045);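 note: HCT116 colon tumor cells with beta catenin knocked out; cells exposed to compound for 60 hours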", "format": "functional"}, "X-box-binding protein 1": {"target": "T1, X-box-binding protein 1 (Homo sapiens, UniProt P17861)", "T1 sequence (P17861 whole entry)": "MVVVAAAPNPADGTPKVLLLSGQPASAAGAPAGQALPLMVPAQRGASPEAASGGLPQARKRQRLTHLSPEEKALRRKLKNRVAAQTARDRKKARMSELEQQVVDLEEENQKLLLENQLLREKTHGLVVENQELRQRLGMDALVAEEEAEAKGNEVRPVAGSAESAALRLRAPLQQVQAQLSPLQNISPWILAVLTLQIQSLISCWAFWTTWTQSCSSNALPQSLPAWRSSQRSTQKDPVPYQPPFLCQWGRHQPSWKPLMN", "format": "functional, Cricetulus griseus"}, "[14]": {"assay": "Luminescence Cell-Based Dose Confirmation HTS to Identify Inhibitors of Platelet Dense Granule Release. [Related pubchem assays: 1663 (Primary HTS), 1678 (Summary of Project)]", "format": "functional"}, "[15]": {"target": "Luciferin 4-monooxygenase (Photinus pyralis, UniProt P08659)", "sequence (P08659 whole entry)": "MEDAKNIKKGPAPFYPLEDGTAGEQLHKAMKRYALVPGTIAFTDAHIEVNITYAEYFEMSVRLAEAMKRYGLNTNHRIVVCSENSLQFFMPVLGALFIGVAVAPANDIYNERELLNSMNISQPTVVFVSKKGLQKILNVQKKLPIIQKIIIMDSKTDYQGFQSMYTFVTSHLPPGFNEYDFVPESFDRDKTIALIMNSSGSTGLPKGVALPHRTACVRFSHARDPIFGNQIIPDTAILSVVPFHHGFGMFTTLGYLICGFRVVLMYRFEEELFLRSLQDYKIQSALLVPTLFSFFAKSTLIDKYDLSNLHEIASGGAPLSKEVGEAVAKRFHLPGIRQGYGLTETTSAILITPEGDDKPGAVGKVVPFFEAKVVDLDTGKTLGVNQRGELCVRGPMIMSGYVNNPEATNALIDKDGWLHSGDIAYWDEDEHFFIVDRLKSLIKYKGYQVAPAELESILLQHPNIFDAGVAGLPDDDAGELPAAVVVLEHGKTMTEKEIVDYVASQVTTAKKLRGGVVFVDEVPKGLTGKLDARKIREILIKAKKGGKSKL", "assay": "firefly luciferase enzyme inhibitors, dose response, biochemical, luminescence (AID 1891)"}, "[16]": {"assay": "Fluorescence Cell-Based Dose Response to Identify Inhibitors of Thrombin Receptor-Activating Peptide SFLLRN-Mediated P-Selectin Induction on Platelets. [Related pubchem assays: 1663 (Primary HTS), 1889 (retest at dose ), 1891 (counterscreen), 1678 (Project Summary)]", "format": "functional"}, "Transthyretin": {"target": "Transthyretin (Homo sapiens, UniProt P02766)", "assay": "Luminescence-based cell-based high throughput dose response assay to identify activators of Transthyretin (TTR) transcription.", "format": "functional"}, "[17]": {"target": "Heat shock protein HSP 90-alpha (Homo sapiens, UniProt P07900)", "assay": "Luminescence-based dose response biochemical high throughput screening assay for inhibitors of the Heat Shock Protein 90 (HSP90). [Related pubchem assays: 1831 (Summary AID.), 1846 (Confirmation screen.), 1789 (Primary screen.)]"}, "[18]": {"target": "T2, Tyrosine-protein phosphatase non-receptor type 7 (Homo sapiens, UniProt P35236)", "T2 sequence (P35236 whole entry)": "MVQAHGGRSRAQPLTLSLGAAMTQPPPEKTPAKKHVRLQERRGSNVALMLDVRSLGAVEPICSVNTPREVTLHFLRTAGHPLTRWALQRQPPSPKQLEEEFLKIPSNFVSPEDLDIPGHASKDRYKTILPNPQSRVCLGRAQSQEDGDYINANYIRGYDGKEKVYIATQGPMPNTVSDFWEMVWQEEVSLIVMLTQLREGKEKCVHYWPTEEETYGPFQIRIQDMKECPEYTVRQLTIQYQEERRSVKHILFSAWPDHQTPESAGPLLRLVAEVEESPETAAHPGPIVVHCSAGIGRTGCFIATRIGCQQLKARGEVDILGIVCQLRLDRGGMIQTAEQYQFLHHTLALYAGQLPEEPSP", "assay": "inhibitors of human HePTP phosphatase, […], biochemical, absorbance, leukemia target (AID 521)", "format": "functional"}},
  "note": "Active and inactive are the calls of the source.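 Throughout, for Absolute IC50 (XBP1): confirmatory dose-response counter-screen serving a CHOP assay.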",
  "data": [
    {"smiles": "Cc1ccc(OCC(=O)Nc2nnc(S(=O)(=O)N3CCC(C)CC3)s2)cc1", "values": [
      {"measurement": "IC50", "setting": "Genome polyprotein", "result": "> 49.8 µM (not active)"}
    ]},
    {"smiles": "C#CC(=O)N(c1cccc(OC)c1)C(C(=O)NC1CCCC1)c1cccs1", "note": "(stereo not drawn)", "values": [
      {"measurement": "AC50", "setting": "[1]", "result": "1.65 µM (active)"},
      {"measurement": "AC50", "setting": "[2]", "result": "3.8 µM (active)"},
      {"measurement": "AC50", "setting": "INS1", "result": "0.65 µM (active)"},
      {"measurement": "IC50", "setting": "Jurkat", "result": "0.25 µM (active)"},
      {"measurement": "AC50", "setting": "[3]", "result": "3.76 µM (active)"},
      {"measurement": "IC50", "setting": "[4]", "result": "28.4 µM (inactive)"},
      {"measurement": "AC50", "setting": "[5]", "result": "3.82 µM (active)"},
      {"measurement": "AC50", "setting": "[6]", "result": "8.46 µM (active)"},
      {"measurement": "AC50", "setting": "[7]", "result": "2.53 µM (active)"},
      {"measurement": "AC50", "setting": "[8]", "result": "9.76 µM (active)"},
      {"measurement": "AC50", "setting": "[9]", "result": "0.96 µM (active)"},
      {"measurement": "AC50", "setting": "[10]", "result": "2.25 µM (active)"}
    ]},
    {"smiles": "O=C(c1ccc2c3c(cccc13)C(=O)N(O)C2=O)N1CCCCC1", "values": [
      {"measurement": "IC50", "setting": "[11]", "result": "11.5 µM (active)"},
      {"measurement": "EC50", "setting": "[12]", "result": "11 µM (active)"},
      {"measurement": "EC50", "setting": "[13]", "result": "13.7 µM (active)"},
      {"measurement": "Absolute IC50 (XBP1)", "setting": "X-box-binding protein 1", "result": 10, "unit": "µM"}
    ]},
    {"smiles": "COc1cc2c(cc1OC)C(/C=C(\\O)c1ccc(NC(C)=O)cc1)=NCC2", "values": [
      {"measurement": "EC50", "setting": "[14]", "result": "3.33 µM (active)"},
      {"measurement": "EC50", "setting": "[15]", "result": "> 112 µM (not active)"},
      {"measurement": "EC50", "setting": "[16]", "result": "< 0.3 µM (active)"}
    ]},
    {"smiles": "CC(Oc1ccccc1)C(=O)N1CCN=C1SCc1ccccc1", "note": "(stereo not drawn)", "values": [
      {"measurement": "EC50", "setting": "Transthyretin", "result": "> 167 µM (inactive)"}
    ]},
    {"smiles": "Cc1nc(NC(=O)/C=C/c2ccccc2)sc1C(=O)Nc1ccccc1Cl", "values": [
      {"measurement": "IC50", "setting": "[17]", "result": "2.91 µM (active)"}
    ]},
    {"smiles": "CC(NC(N)=O)C12CC3CC(CC(C3)C1)C2", "note": "(stereo not drawn)", "values": [
      {"measurement": "IC50", "setting": "[18]", "result": "> 100 µM (not active)"}
    ]}
  ]
}
